According to article PMC9928118, “Funneling modulatory peptide design with generative models: Discovery and characterization of disruptors of calcineurin protein-protein interactions” (PLOS Computational Biology, 2023):

Test system: GST-tagged Cn
Experiment: PEPperPRINT peptide microarray binding assay with GST-tagged Cn
In short: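 Qualitative binding: peptides printed on a PEPperPRINT microarray were incubated overnight at 4 °C with 1 mg/ml GST-tagged Cn, then detected with Alexa-Fluor 647 anti-GST antibody. Log fluorescence was baseline-corrected, averaged over duplicate spots, Z-normalized and averaged across five repeats.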

[1] = GST-tagged Cn, max over the chip spots listed under Location on chip
[2] = GST-tagged Cn, mean over the chip spots listed under Location on chip
[3] = max over the spots listed under Location on chip
[4] = mean over the spots listed under Location on chip
[5] = GST-tagged Cn, max over the spots named in Location on chip
[6] = GST-tagged Cn, mean over the spots named in Location on chip
[7] = max over the chip locations listed for the peptide (two spots)
[8] = mean over the chip locations listed for the peptide (two spots)
[9] = GST-tagged Cn, max over the chip locations
[10] = GST-tagged Cn, mean over the chip locations
[11] = GST-tagged Cn, max over the spots on the chip (two locations)
[12] = GST-tagged Cn, mean over the spots on the chip (two locations)

Sequence: LTWTSNDMKLHLSGVS [Seqshuffled_9827]
- Chip Fluorescence (max) [1]: 0.7935
- Chip Fluorescence (mean) [2]: -0.8344

Sequence: LVWDNGSYTGRTIKAP [Seqshuffled_9818]
- Chip Fluorescence (max) [1]: 0.8809
- Chip Fluorescence (mean) [2]: -0.1421

Sequence: MAGPHPKIVITGPHEE [PKIVIT-containing synthetic peptide]
- Chip Fluorescence (max) [3]: 2.82
- Chip Fluorescence (mean) [4]: 1.158

Sequence: MLDAIPEVVVSPPEEP [SeqRBM_4087]
- Chip Fluorescence (max) [5]: 1.659
- Chip Fluorescence (mean) [6]: -0.168

Sequence: MLSIRPSARLKIPQHR [SeqRBM_1889]
- Chip Fluorescence (max) [5]: 1.553
- Chip Fluorescence (mean) [6]: -0.6579

Sequence: MRRERSNRAMFKVNQH [Seqrandom_9977]
- Chip Fluorescence (max) [5]: 1.743
- Chip Fluorescence (mean) [6]: -0.1357

Sequence: MTPAAPIVRLHIPSSV [SeqRBM_8521]
- Chip Fluorescence (max) [1]: 0.4752
- Chip Fluorescence (mean) [2]: -0.03556

Sequence: NAWKNPGQETHTTKKL [Seqshuffled_9929]
- Chip Fluorescence (max) [5]: 1.453
- Chip Fluorescence (mean) [6]: -0.5656

Sequence: NDHALPEITVTPAELP [SeqRBM_7856]
- Chip Fluorescence (max) [7]: 4.823
- Chip Fluorescence (mean) [8]: 1.654

Sequence: NDHNTNDWSFELGQTV [Seqshuffled_9000]
- Chip Fluorescence (max) [7]: 3.477
- Chip Fluorescence (mean) [8]: 1.051

Sequence: NFNPNPAVVLKIPQQR [SeqRBM_5953]
- Chip Fluorescence (max) [9]: -0.355
- Chip Fluorescence (mean) [10]: -1.487

Sequence: NGPGTPSRQGQPAAPS [SeqRTS1_Penicillium_nalgiovense]
- Chip Fluorescence (max) [1]: 0.9409
- Chip Fluorescence (mean) [2]: -0.6593

Sequence: NGPGTPTRQGQPLAPS [SeqRBMlowT_7792]
- Chip Fluorescence (max) [1]: 0.749
- Chip Fluorescence (mean) [2]: -1.0469

Sequence: NGPSTPTKQGQPMAPS [SeqRBM_8324]
- Chip Fluorescence (max) [1]: 0.6682
- Chip Fluorescence (mean) [2]: -0.9835

Sequence: NICTSLTLVETDPTVY [Seqshuffled_9501]
- Chip Fluorescence (max) [3]: 2.929
- Chip Fluorescence (mean) [4]: 1.69

Sequence: NIEKMPELQACGHTSF [SeqRBM_2022]
- Chip Fluorescence (max) [7]: 4.705
- Chip Fluorescence (mean) [8]: 1.485

Sequence: NIIKTLTAVARYCQHF [Seqrandom_9968]
- Chip Fluorescence (max) [5]: 1.398
- Chip Fluorescence (mean) [6]: -0.3065

Sequence: NKLKIPHQLSQPINDH [SeqRBM_2163]
- Chip Fluorescence (max) [3]: 2.778
- Chip Fluorescence (mean) [4]: 0.1403

Sequence: NMATVPAVTMGEVART [SeqRBM_5293]
- Chip Fluorescence (max) [3]: 2.99
- Chip Fluorescence (mean) [4]: -0.7897

Sequence: NMGTGVGIVITITEAV [SeqAKAP79_Meleagris_gallopavo]
- Chip Fluorescence (max) [3]: 2.665
- Chip Fluorescence (mean) [4]: 0.9097

Sequence: NNSESPKIAITTTLGN [SeqRBM_1677]
- Chip Fluorescence (max) [5]: 1.504
- Chip Fluorescence (mean) [6]: -0.4285

Sequence: NSSGAPQFQINVLMGE [SeqRBM_9653]
- Chip Fluorescence (max) [9]: -0.2717
- Chip Fluorescence (mean) [10]: -1.157

Sequence: NVLRISSARPDNRGVY [SeqCEACAM5_Musca_domestica]
- Chip Fluorescence (max) [5]: 1.598
- Chip Fluorescence (mean) [6]: 0.6708

Sequence: NVPKGIRFRRTYLAIP [Seqshuffled_5577]
- Chip Fluorescence (max) [1]: 0.7584
- Chip Fluorescence (mean) [2]: -1.743

Sequence: NVSSSPRVTLKIPQHR [SeqRBM_7185]
- Chip Fluorescence (max) [11]: 1.102
- Chip Fluorescence (mean) [12]: 0.1459

Sequence: NWPETPSIVEQPPSSS [SeqRBM_881]
- Chip Fluorescence (max) [9]: 0.2051
- Chip Fluorescence (mean) [10]: -1.045

Sequence: PAFFCEGFTIQADSLD [Seqshuffled_9825]
- Chip Fluorescence (max) [11]: 1.294
- Chip Fluorescence (mean) [12]: 0.4829

Sequence: PAGAGVGIVITVTEAE [SeqRBMlowT_166]
- Chip Fluorescence (max) [3]: 3.117
- Chip Fluorescence (mean) [4]: 1.082

Sequence: PAGTGVGIVITVTEAE [SeqRBMlowT_157]
- Chip Fluorescence (max) [11]: 1.221
- Chip Fluorescence (mean) [12]: -0.03937

Sequence: PALESPRIEITSCLGL [SeqNFATC1_Homo_sapiens]
- Chip Fluorescence (max) [5]: 1.48
- Chip Fluorescence (mean) [6]: 0.3949

Sequence: PALESPRIEITSYLGM [SeqNFATC1_Canis_lupus]
- Chip Fluorescence (max) [5]: 1.5159
- Chip Fluorescence (mean) [6]: -0.48

Sequence: PALYDNALGIESFTLS [SeqCRZ1_Penicillium_arizonense]
- Chip Fluorescence (max) [5]: 1.355
- Chip Fluorescence (mean) [6]: 0.6125

Sequence: PDEAQPGIVVHVCELP [SeqRBMlowT_301]
- Chip Fluorescence (max) [11]: 1.28
- Chip Fluorescence (mean) [12]: 0.6681

Sequence: PDESTPEITITPAELP [SeqRBMlowT_5714]
- Chip Fluorescence (max) [5]: 1.719
- Chip Fluorescence (mean) [6]: -0.09544

Sequence: PENKFQPFAIKLCVKG [Seqshuffled_5021]
- Chip Fluorescence (max) [1]: 0.8772
- Chip Fluorescence (mean) [2]: -0.6992

Sequence: PFEKNDIQQIHLEEHP [Seqshuffled_9861]
- Chip Fluorescence (max) [5]: 1.396
- Chip Fluorescence (mean) [6]: 0.78

Sequence: PFLAEQYMVVEEMTVS [Seqshuffled_9732]
- Chip Fluorescence (max) [5]: 1.48
- Chip Fluorescence (mean) [6]: -0.4167

Sequence: PGCATPRIAITPTENM [SeqRBM_2983]
- Chip Fluorescence (max) [11]: 1.167
- Chip Fluorescence (mean) [12]: 0.2882
